Assays:
[1] = system: mast cell and basophil degranulation; settings: cited from earlier work
[2] = system: collagen-induced arthritis; settings: mice, orally dosed; cited from earlier work
MRL/lpr lupus model = settings: cited from earlier work
[3] = system: T cell receptor (TCR) signaling; settings: cited from earlier work
[4] = system: pancreatic cancer cell lines with a DPC4 deletion (BxPC-3 and CFPAC-1) vs DPC4 wildtype (MIA PaCa-2 and PANC-1); assay: Cell viability by Cell Titer-Glo after 96 hours of drug treatment, pancreatic cancer cell lines; format: cell-based, human; settings: BxPC-3 and CFPAC-1 vs MIA PaCa-2 and PANC-1, FIG. 5A, *p<0.05, **p<0.0001
Protocol: Cell viability was measured by Cell Titer-Glo after 96 hours of drug treatment.

[5] = system: BCR (B cell receptor) signaling in human B cells; settings: cited from earlier work

C=CC(=O)N1CCC[C@@H](n2nc(-c3ccc(Oc4ccccc4)cc3)c3c(N)ncnc32)C1 [PCI-32765]
inhibition of mast cell and basophil degranulation [1]: potent inhibitor | course of collagen induced arthritis [2]: reversed | level of circulating autoantibodies [2]: reduced | auto-antibody production and development of kidney disease (MRL/lpr lupus model): inhibited | effect on TCR signaling [3]: does not affect | activity (inhibition of cell growth) in DPC4 deleted vs DPC4 wildtype pancreatic cancer cell lines [4]: more activity | effect on BCR signaling [5]: blocks

— patent publication US10322127B2, “Methods and kits to predict therapeutic outcome of BTK inhibitors” (THE TRANSLATIONAL GENOMICS RESEARCH INSTITUTE, priority 2010, dated 2019)
